Columns and labels:
human DGKα = target: T1, human DGKα (Homo sapiens, UniProt P23743); assay: DGKα Biochemical Activity Assay (ADP-Glo);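 also: recombinant enzyme converting diacylglycerol in lipid micelles with ATP, ADP formed detected by luminescence, IC50 from a four-parameter nonlinear fit, geometric mean across experiments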
T1 construct: purchased Carna Biosciences'; inferred from the same paragraph's 'obtained from Carna Biosciences')

[1] = system: Jurkat NFκB-luciferase cells; assay: Jurkat NFκB-Luciferase Assay; assay type: cell-based; conditions: Homo sapiens; Jurkat NFκB-luciferase cells activated with anti-CD3 antibody (OKT3), 2.5 hrs at 37° C., One-Glo Ex; geometric mean; read-out: DGK NFKb Luciferase EC50;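 also: bioluminescence read-out normalized to DMSO basal activation and to maximum enhancement at 1 µM compound, rising signal indicating stronger T-cell activation through DGKα inhibition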

T1 sequence (P23743 whole entry): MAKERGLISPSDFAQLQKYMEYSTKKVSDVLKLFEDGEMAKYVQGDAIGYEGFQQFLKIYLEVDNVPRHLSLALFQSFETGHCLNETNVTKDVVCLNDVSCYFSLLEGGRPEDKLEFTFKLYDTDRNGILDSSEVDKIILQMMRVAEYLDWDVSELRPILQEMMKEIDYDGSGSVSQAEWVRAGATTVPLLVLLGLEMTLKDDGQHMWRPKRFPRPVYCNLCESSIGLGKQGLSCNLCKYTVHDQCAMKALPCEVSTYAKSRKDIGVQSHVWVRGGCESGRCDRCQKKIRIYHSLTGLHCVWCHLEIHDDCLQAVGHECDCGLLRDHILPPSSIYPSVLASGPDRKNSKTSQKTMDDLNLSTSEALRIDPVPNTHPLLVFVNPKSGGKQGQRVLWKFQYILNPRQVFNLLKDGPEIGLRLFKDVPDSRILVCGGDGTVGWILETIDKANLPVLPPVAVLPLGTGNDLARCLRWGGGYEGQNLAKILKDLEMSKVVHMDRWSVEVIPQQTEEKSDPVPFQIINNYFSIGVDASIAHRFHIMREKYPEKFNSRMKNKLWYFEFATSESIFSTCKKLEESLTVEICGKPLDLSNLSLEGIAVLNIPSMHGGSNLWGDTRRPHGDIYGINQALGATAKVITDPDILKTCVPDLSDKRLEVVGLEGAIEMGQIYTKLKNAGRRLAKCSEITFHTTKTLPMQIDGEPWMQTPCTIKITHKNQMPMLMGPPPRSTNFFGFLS

SMILES: [2H]C([2H])([2H])n1c(=O)nc(N(CC(F)F)c2ccnc(C#CC3(C)CC3)c2)c2c(F)c(F)ccc21 [Example 117, 4-[2,2-difluoroethyl-[2-[2-(1-methylcyclopropyl)ethynyl]-4-pyridyl]amino]-5,6-difluoro-1-(trideuteriomethyl)quinazolin-2-one]
- IC50 (human DGKα): 3.36 nM
- EC50 [1]: 4.7 nM

SMILES: O=c1nc(N(CC(F)F)c2ccnc(C#CC3(C(F)(F)F)CC3)c2F)c2c(F)cccc2[nH]1 [Example 118, 4-[2,2-difluoroethyl-[3-fluoro-2-[2-[1-(trifluoromethyl)cyclopropyl]ethynyl]-4-pyridyl]amino]-5-fluoro-1H-quinazolin-2-one]
- IC50 (human DGKα): 25.7 nM
- EC50 [1]: 3.73 nM

SMILES: CC(C)(C#N)C#Cc1nccc(N(CC(F)F)c2nc(=O)[nH]c3cccc(F)c23)c1F [Example 119, 4-[4-[2,2-difluoroethyl-(5-fluoro-2-oxo-1H-quinazolin-4-yl)amino]-3-fluoro-2-pyridyl]-2,2-dimethyl-but-3-ynenitrile]
- IC50 (human DGKα): 10.8 nM
- EC50 [1]: 7.11 nM

SMILES: [2H]C([2H])([2H])n1c(=O)nc(N(CC(F)F)c2ccnc(C#Cc3cnn(C)c3)c2)c2c(F)c(F)ccc21 [Example 120, 4-[2,2-difluoroethyl-[2-[2-(1-methylpyrazol-4-yl)ethynyl]-4-pyridyl]amino]-5,6-difluoro-1-(trideuteriomethyl)quinazolin-2-one]
- IC50 (human DGKα): 5.77 nM
- EC50 [1]: 34.9 nM

SMILES: CC(C)(C#Cc1nccc(N(CC(F)F)c2nc(=O)[nH]c3cccc(F)c23)c1F)C(F)F [Example 121, 4-[[2-(4,4-difluoro-3,3-dimethyl-but-1-ynyl)-3-fluoro-4-pyridyl]-(2,2-difluoroethyl)amino]-5-fluoro-1H-quinazolin-2-one]
- IC50 (human DGKα): 20.7 nM
- EC50 [1]: 8.44 nM

SMILES: O=c1nc(N(CC(F)F)c2ccnc(C#CC3CC3)c2F)c2c(F)cccc2[nH]1 [Example 122, 4-[[2-(2-cyclopropylethynyl)-3-fluoro-4-pyridyl]-(2,2-difluoroethyl)amino]-5-fluoro-1H-quinazolin-2-one]
- IC50 (human DGKα): 7 nM
- EC50 [1]: 3.46 nM

SMILES: [2H]C([2H])([2H])n1c(=O)nc(N(CC(F)F)c2ccnc(C#CC(C)(C)C(F)F)c2F)c2c(F)cccc21 [Example 123, 4-[[2-(4,4-difluoro-3,3-dimethyl-but-1-ynyl)-3-fluoro-4-pyridyl]-(2,2-difluoroethyl)amino]-5-fluoro-1-(trideuteriomethyl)quinazolin-2-one]
- IC50 (human DGKα): 6.41 nM
- EC50 [1]: 2.39 nM

SMILES: [2H]C([2H])([2H])n1c(=O)nc(N(CC(F)F)c2ccnc(C#CC3(C(F)(F)F)CC3)c2F)c2c(F)cccc21 [Example 124, 4-[2,2-difluoroethyl-[3-fluoro-2-[2-[1-(trifluoromethyl)cyclopropyl]ethynyl]-4-pyridyl]amino]-5-fluoro-1-(trideuteriomethyl)quinazolin-2-one]
- IC50 (human DGKα): 12 nM
- EC50 [1]: 1.27 nM

SMILES: CC(C)(C#Cc1nccc(N(CC(F)F)c2nc(=O)[nH]c3cccc(F)c23)c1F)C(F)(F)F [Example 125, 4-[2,2-difluoroethyl-[3-fluoro-2-(4,4,4-trifluoro-3,3-dimethyl-but-1-ynyl)-4-pyridyl]amino]-5-fluoro-1H-quinazolin-2-one]
- IC50 (human DGKα): 40.8 nM
- EC50 [1]: 2.18 nM

SMILES: O=c1nc(N(CC(F)F)c2ccnc(C#CC3(C(F)F)CC3)c2F)c2c(F)cccc2[nH]1 [Example 126, 4-[2,2-difluoroethyl-[2-[2-[1-(difluoromethyl)cyclopropyl]ethynyl]-3-fluoro-4-pyridyl]amino]-5-fluoro-1H-quinazolin-2-one]
- IC50 (human DGKα): 18 nM
- EC50 [1]: 3.37 nM

SMILES: CC(C)(O)C#Cc1cccc2c1CCCN2c1nc(=O)[nH]c2cccc(Cl)c12 [Example 127, 5-chloro-4-[5-(3-hydroxy-3-methyl-but-1-ynyl)-3,4-dihydro-2H-quinolin-1-yl]-1H-quinazolin-2-one]
- IC50 (human DGKα): 8.66 nM
- EC50 [1]: 3.92 nM

SMILES: [2H]C([2H])([2H])n1c(=O)nc(N(CC(F)F)c2ccnc(C#CC(C)(C)O)c2F)c2c(F)cccc21 [Example 128, 4-[2,2-difluoroethyl-[3-fluoro-2-(3-hydroxy-3-methyl-but-1-ynyl)-4-pyridyl]amino]-5-fluoro-1-(trideuteriomethyl)quinazolin-2-one]
- IC50 (human DGKα): 7.36 nM
- EC50 [1]: 41.2 nM

SMILES: [2H]C([2H])([2H])n1c(=O)nc(N(CC(F)F)c2ccnc(C#CC3(C(F)F)CC3)c2F)c2c(F)cccc21 [Example 129, 4-[2,2-difluoroethyl-[2-[2-[1-(difluoromethyl)cyclopropyl]ethynyl]-3-fluoro-4-pyridyl]amino]-5-fluoro-1-(trideuteriomethyl)quinazolin-2-one]
- IC50 (human DGKα): 2.82 nM
- EC50 [1]: 4.26 nM

SMILES: [2H]C([2H])([2H])n1c(=O)nc(N2CCCc3c(C#CC(C)(C)O)cccc32)c2c(Cl)cccc21 [Example 130, 5-chloro-4-[5-(3-hydroxy-3-methyl-but-1-ynyl)-3,4-dihydro-2H-quinolin-1-yl]-1-(trideuteriomethyl)quinazolin-2-one]
- IC50 (human DGKα): 5.49 nM
- EC50 [1]: 16.8 nM

SMILES: CC(C)(C#Cc1nccc2c1CCCN2c1nc(=O)[nH]c2cccc(F)c12)C(F)(F)F [Example 131, 5-fluoro-4-[5-(4,4,4-trifluoro-3,3-dimethyl-but-1-ynyl)-3,4-dihydro-2H-1,6-naphthyridin-1-yl]-1H-quinazolin-2-one]
- IC50 (human DGKα): 43.7 nM
- EC50 [1]: 11.1 nM

SMILES: CC(F)(F)C1(C#Cc2nccc3c2CCCN3c2nc(=O)[nH]c3cccc(F)c23)CC1 [Example 132, 4-[5-[2-[1-(1,1-difluoroethyl)cyclopropyl]ethynyl]-3,4-dihydro-2H-1,6-naphthyridin-1-yl]-5-fluoro-1H-quinazolin-2-one]
- IC50 (human DGKα): 66.1 nM
- EC50 [1]: 9.96 nM

SMILES: CC(C)(C#Cc1nccc2c1CCCN2c1nc(=O)[nH]c2ccc(F)c(F)c12)C(F)(F)F [Example 133, 5,6-difluoro-4-[5-(4,4,4-trifluoro-3,3-dimethyl-but-1-ynyl)-3,4-dihydro-2H-1,6-naphthyridin-1-yl]-1H-quinazolin-2-one]
- IC50 (human DGKα): 23.2 nM
- EC50 [1]: 4.47 nM

SMILES: CC(F)(F)C1(C#Cc2nccc3c2CCCN3c2nc(=O)[nH]c3ccc(F)c(F)c23)CC1 [Example 134, 4-[5-[2-[1-(1,1-difluoroethyl)cyclopropyl]ethynyl]-3,4-dihydro-2H-1,6-naphthyridin-1-yl]-5,6-difluoro-1H-quinazolin-2-one]
- IC50 (human DGKα): 14.4 nM
- EC50 [1]: 2.52 nM

SMILES: [2H]C([2H])([2H])n1c(=O)nc(N(CC(F)F)c2ccnc(C#CC3(C(F)(F)F)CC3)c2)c2c(F)cccc21 [Example 135, 4-[2,2-difluoroethyl-[2-[2-[1-(trifluoromethyl)cyclopropyl]ethynyl]-4-pyridyl]amino]-5-fluoro-1-(trideuteriomethyl)quinazolin-2-one]
- IC50 (human DGKα): 10.6 nM
- EC50 [1]: 2.23 nM

SMILES: [2H]C([2H])([2H])n1c(=O)nc(N(CC(F)F)c2ccnc(C#Cc3cncn3C)c2)c2c(F)cccc21 [Example 136, 4-[2,2-difluoroethyl-[2-[2-(3-methylimidazol-4-yl)ethynyl]-4-pyridyl]amino]-5-fluoro-1-(trideuteriomethyl)quinazolin-2-one]
- IC50 (human DGKα): 26.5 nM
- EC50 [1]: 84.4 nM

SMILES: [2H]C([2H])([2H])n1c(=O)nc(N(CC(F)F)c2ccnc(C#Cc3cnn(C)c3)c2)c2c(F)cccc21 [Example 137, 4-[2,2-difluoroethyl-[2-[2-(1-methylpyrazol-4-yl)ethynyl]-4-pyridyl]amino]-5-fluoro-1-(trideuteriomethyl)quinazolin-2-one]
- IC50 (human DGKα): 10.2 nM
- EC50 [1]: 24.2 nM

SMILES: [2H]C([2H])([2H])n1c(=O)nc(N(CC(F)F)c2ccnc(C#CC3(C)CC3)c2)c2c(F)cccc21 [Example 138, 4-[2,2-difluoroethyl-[2-[2-(1-methylcyclopropyl)ethynyl]-4-pyridyl]amino]-5-fluoro-1-(trideuteriomethyl)quinazolin-2-one]
- IC50 (human DGKα): 6.83 nM
- EC50 [1]: 4.59 nM

SMILES: [2H]C([2H])([2H])n1c(=O)nc(N(CC(F)F)c2ccnc(C#CC(C)(C)C#N)c2)c2c(F)cccc21 [Example 139, 4-[4-[2,2-difluoroethyl-[5-fluoro-2-oxo-1-(trideuteriomethyl)quinazolin-4-yl]amino]-2-pyridyl]-2,2-dimethyl-but-3-ynenitrile]
- IC50 (human DGKα): 18.3 nM
- EC50 [1]: 15.5 nM

SMILES: [2H]C([2H])([2H])n1c(=O)nc(N2CCCc3c2ccnc3C#CC(C)(C)C#N)c2c(F)c(F)ccc21 [Example 140, 4-[1-[5,6-difluoro-2-oxo-1-(trideuteriomethyl)quinazolin-4-yl]-3,4-dihydro-2H-1,6-naphthyridin-5-yl]-2,2-dimethyl-but-3-ynenitrile]
- IC50 (human DGKα): 15.3 nM
- EC50 [1]: 7.54 nM

SMILES: [2H]C([2H])([2H])n1c(=O)nc(N2CCCc3c2ccnc3C#CC2(C(F)(F)F)CC2)c2c(F)c(F)ccc21 [Example 141, 5,6-difluoro-1-(trideuteriomethyl)-4-[5-[2-[1-(trifluoromethyl)cyclopropyl]ethynyl]-3,4-dihydro-2H-1,6-naphthyridin-1-yl]quinazolin-2-one]
- IC50 (human DGKα): 6.28 nM
- EC50 [1]: 2.37 nM

SMILES: [2H]C([2H])([2H])n1c(=O)nc(N2CCCc3c2ccnc3C#CC2(C(F)(F)F)CC2)c2c(F)cccc21 [Example 142, 5-fluoro-1-(trideuteriomethyl)-4-[5-[2-[1-(trifluoromethyl)cyclopropyl]ethynyl]-3,4-dihydro-2H-1,6-naphthyridin-1-yl]quinazolin-2-one]
- IC50 (human DGKα): 8.91 nM
- EC50 [1]: 8.25 nM

SMILES: CC(C)(C#N)C#Cc1cccc2c1CCCCN2c1nc(=O)[nH]c2cccc(F)c12 [Example 143, 4-[1-(5-fluoro-2-oxo-1H-quinazolin-4-yl)-2,3,4,5-tetrahydro-1-benzazepin-6-yl]-2,2-dimethyl-but-3-ynenitrile]
- IC50 (human DGKα): 18.4 nM
- EC50 [1]: 1.75 nM

SMILES: O=c1nc(N2CCOCc3c(C#CC4(C(F)(F)F)CC4)cccc32)c2c(F)ccc(F)c2[nH]1 [Example 144]
- IC50 (human DGKα): 21.8 nM
- EC50 [1]: 5.34 nM

SMILES: CC1(C#Cc2cccc3c2COCCN3c2nc(=O)[nH]c3c(F)ccc(F)c23)CC1 [Example 145]
- IC50 (human DGKα): 13 nM
- EC50 [1]: 3.19 nM

SMILES: O=c1nc(N2CCOCc3c(C#CC4CC4)cccc32)c2c(F)ccc(F)c2[nH]1 [Example 146]
- IC50 (human DGKα): 9.59 nM
- EC50 [1]: 4.69 nM
